Experimental data reported in PMC11850817 (Scientific Reports, 2025).

How the values were obtained:
[1] = system: EBC-1; assay: MTT antiproliferative assay, EBC-1; type: cell-based, human; conditions: Homo sapiens, EBC-1, 72 h, read-out: IC50 EBC-1
[2] = system: AsPC-1; assay: MTT antiproliferative assay, AsPC-1; type: cell-based, human; conditions: Homo sapiens, ASPC1, 72 h, read-out: IC50 AsPC-1
[3] = system: HT-29; assay: MTT antiproliferative assay, HT-29; type: cell-based, human; conditions: Homo sapiens, HT-29, 72 h, read-out: IC50 HT-29
[4] = system: NIH3T3; assay: MTT assay, NIH3T3 non-cancer cell line; type: cell-based; conditions: Mus musculus, NIH3T3, 72 h, read-out: IC50 NIH3T3
[5] = target: ALK (Homo sapiens, UniProt Q9UM73); assay: Radiometric kinase assay; type: biochemical; conditions: read-out: Kinase inhibition (%) ALK
[6] = target: AURKA (Homo sapiens, UniProt O14965); assay: Radiometric kinase assay; type: biochemical; conditions: read-out: Kinase inhibition (%) AURKA
[7] = target: T1, AXL (Homo sapiens, UniProt P30530); assay: Radiometric kinase assay; type: biochemical; conditions: read-out: Kinase inhibition (%) AXL
T1 sequence (P30530 26-894): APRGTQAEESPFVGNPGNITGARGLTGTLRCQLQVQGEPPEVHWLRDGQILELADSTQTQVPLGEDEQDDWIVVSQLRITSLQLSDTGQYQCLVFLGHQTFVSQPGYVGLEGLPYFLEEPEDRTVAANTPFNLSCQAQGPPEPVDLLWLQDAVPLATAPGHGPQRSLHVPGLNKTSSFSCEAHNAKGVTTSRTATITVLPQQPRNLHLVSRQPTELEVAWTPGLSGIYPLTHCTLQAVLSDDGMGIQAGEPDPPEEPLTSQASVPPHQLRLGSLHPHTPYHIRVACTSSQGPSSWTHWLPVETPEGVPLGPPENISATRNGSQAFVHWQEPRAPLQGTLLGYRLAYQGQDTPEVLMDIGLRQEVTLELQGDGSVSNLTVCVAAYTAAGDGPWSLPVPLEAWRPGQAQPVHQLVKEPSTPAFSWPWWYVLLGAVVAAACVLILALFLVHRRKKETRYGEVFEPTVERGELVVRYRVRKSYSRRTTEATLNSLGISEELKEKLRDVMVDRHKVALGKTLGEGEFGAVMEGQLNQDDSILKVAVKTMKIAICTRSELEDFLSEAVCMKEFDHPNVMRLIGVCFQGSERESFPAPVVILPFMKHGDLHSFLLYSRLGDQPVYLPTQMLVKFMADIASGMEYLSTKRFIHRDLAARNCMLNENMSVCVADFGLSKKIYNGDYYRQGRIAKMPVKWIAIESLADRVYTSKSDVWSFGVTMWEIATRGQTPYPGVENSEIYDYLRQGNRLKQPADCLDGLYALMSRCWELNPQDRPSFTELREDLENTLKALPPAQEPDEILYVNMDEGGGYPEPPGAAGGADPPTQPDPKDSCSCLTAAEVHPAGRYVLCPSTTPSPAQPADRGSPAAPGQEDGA

[8] = target: CDK2/cyclin A (Homo sapiens, UniProt P24941); assay: Radiometric kinase assay; type: biochemical; conditions: read-out: Kinase inhibition (%) CDK2/cyclin A
[9] = target: CDK6/cyclinD3 (Homo sapiens, UniProt Q00534); assay: Radiometric kinase assay; type: biochemical; conditions: read-out: Kinase inhibition (%) CDK6/cyclinD3
CDK6/cyclinD3, sequence (Q00534 whole entry): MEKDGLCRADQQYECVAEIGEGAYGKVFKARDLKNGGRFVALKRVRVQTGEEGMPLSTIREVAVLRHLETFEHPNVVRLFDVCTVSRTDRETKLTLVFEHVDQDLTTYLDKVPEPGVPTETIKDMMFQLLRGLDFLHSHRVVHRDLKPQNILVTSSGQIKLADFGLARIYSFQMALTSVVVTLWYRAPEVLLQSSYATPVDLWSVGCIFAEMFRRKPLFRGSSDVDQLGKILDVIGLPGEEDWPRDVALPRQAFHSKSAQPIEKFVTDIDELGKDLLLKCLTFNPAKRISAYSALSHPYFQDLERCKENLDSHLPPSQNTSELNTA
CDK6/cyclinD3, sequence (P30281 whole entry partner): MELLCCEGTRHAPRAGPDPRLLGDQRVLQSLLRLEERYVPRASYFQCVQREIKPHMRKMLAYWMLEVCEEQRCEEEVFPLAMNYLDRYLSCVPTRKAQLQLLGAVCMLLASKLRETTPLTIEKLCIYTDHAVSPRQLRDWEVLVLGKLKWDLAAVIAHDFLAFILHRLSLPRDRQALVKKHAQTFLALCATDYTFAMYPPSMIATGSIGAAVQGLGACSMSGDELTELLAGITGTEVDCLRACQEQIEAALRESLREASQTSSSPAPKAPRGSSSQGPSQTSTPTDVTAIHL

[10] = target: CHEK1 (Homo sapiens, UniProt O14757); assay: Radiometric kinase assay; type: biochemical; conditions: read-out: Kinase inhibition (%) CHEK1
[11] = target: EGFR (Homo sapiens, UniProt P00533); assay: Radiometric kinase assay; type: biochemical; conditions: read-out: Kinase inhibition (%) EGFR
[12] = target: ERBB2 (Her-2) (Homo sapiens, UniProt P04626); assay: Radiometric kinase assay; type: biochemical; conditions: read-out: Kinase inhibition (%) ERBB2 (Her-2)
[13] = target: FGFR1 (Homo sapiens, UniProt P11362); assay: Radiometric kinase assay; type: biochemical; conditions: read-out: Kinase inhibition (%) FGFR1
[14] = target: FLT4 (VEGFR3) (Homo sapiens, UniProt P35916); assay: Radiometric kinase assay; type: biochemical; conditions: read-out: Kinase inhibition (%) FLT4 (VEGFR3)
FLT4 (VEGFR3), sequence (P35916 25-1363): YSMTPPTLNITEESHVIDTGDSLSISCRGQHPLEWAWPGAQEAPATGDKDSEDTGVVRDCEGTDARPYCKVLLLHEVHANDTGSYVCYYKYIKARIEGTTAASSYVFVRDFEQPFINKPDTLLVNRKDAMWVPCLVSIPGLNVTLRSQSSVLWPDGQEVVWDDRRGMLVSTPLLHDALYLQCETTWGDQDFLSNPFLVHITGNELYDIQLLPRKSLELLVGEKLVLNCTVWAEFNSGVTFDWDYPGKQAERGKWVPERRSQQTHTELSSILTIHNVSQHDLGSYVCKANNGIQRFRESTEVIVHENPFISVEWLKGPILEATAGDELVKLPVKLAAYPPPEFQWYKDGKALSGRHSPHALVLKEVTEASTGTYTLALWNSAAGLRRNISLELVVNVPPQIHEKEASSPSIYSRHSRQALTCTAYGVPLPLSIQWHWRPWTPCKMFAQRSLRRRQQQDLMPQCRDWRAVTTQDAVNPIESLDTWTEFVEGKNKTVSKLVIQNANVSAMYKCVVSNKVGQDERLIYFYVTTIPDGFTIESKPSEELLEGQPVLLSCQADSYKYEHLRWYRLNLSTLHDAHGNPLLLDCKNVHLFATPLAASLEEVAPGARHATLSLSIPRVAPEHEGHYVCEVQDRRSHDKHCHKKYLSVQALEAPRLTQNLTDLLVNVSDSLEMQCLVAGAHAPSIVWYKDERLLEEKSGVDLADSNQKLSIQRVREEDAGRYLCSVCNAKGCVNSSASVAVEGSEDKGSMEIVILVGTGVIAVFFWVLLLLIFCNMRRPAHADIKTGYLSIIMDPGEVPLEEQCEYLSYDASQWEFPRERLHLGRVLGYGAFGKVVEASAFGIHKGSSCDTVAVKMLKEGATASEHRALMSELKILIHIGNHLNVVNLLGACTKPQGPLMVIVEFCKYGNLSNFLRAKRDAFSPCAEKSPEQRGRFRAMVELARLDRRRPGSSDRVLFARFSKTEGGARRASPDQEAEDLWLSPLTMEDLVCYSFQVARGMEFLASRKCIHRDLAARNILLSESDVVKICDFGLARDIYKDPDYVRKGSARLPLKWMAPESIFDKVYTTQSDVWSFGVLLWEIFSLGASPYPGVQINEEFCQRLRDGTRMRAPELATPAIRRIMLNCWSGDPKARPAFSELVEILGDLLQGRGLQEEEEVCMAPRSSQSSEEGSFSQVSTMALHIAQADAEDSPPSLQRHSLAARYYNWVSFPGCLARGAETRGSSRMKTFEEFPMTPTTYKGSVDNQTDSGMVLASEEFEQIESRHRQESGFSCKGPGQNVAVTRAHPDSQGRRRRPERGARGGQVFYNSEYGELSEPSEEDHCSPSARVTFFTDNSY

[15] = target: KDR (VEGFR2) (Homo sapiens, UniProt P35968); assay: Radiometric kinase assay; type: biochemical; conditions: read-out: Kinase inhibition (%) KDR (VEGFR2)
KDR (VEGFR2), sequence (P35968 20-1356): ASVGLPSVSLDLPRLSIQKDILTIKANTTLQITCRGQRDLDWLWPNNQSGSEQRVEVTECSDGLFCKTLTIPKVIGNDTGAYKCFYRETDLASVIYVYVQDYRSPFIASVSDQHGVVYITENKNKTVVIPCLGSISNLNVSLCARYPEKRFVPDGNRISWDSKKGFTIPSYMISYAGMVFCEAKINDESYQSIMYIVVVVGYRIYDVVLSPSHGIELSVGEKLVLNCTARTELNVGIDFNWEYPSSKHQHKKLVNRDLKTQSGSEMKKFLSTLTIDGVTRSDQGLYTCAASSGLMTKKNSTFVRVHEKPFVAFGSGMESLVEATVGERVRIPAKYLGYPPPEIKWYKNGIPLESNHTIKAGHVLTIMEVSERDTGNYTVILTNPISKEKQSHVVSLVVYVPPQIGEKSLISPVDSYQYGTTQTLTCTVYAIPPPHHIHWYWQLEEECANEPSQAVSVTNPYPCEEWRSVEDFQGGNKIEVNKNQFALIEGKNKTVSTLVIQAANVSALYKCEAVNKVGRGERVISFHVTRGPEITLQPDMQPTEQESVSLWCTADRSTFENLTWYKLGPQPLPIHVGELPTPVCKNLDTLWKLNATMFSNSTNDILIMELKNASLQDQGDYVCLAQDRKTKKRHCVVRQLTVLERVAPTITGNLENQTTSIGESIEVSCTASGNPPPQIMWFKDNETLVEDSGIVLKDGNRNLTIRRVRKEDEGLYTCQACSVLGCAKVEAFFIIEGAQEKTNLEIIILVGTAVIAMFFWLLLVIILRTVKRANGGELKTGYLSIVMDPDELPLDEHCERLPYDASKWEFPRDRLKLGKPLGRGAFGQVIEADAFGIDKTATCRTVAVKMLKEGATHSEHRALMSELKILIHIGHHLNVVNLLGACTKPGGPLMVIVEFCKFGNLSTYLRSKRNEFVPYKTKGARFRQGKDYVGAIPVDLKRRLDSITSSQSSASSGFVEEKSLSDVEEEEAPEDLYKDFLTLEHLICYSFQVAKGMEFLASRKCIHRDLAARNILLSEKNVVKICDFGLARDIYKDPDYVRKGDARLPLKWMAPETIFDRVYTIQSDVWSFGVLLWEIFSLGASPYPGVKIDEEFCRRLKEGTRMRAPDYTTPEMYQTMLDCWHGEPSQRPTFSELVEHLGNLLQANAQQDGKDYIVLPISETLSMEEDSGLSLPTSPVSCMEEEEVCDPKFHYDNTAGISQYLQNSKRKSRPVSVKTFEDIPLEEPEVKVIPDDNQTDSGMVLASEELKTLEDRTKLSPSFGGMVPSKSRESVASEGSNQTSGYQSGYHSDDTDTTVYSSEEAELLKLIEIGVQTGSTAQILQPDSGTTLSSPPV

[16] = target: KIT (c-Kit) (Homo sapiens, UniProt P10721); assay: Radiometric kinase assay; type: biochemical; conditions: read-out: Kinase inhibition (%) KIT (c-Kit)
[17] = target: MAPK1 (ERK2) (Homo sapiens, UniProt P28482); assay: Radiometric kinase assay; type: biochemical; conditions: read-out: Kinase inhibition (%) MAPK1 (ERK2)
[18] = target: NTRK1 (TrkA) (Homo sapiens, UniProt P04629); assay: Radiometric kinase assay; type: biochemical; conditions: read-out: Kinase inhibition (%) NTRK1 (TrkA)
NTRK1 (TrkA), sequence (P04629 33-796): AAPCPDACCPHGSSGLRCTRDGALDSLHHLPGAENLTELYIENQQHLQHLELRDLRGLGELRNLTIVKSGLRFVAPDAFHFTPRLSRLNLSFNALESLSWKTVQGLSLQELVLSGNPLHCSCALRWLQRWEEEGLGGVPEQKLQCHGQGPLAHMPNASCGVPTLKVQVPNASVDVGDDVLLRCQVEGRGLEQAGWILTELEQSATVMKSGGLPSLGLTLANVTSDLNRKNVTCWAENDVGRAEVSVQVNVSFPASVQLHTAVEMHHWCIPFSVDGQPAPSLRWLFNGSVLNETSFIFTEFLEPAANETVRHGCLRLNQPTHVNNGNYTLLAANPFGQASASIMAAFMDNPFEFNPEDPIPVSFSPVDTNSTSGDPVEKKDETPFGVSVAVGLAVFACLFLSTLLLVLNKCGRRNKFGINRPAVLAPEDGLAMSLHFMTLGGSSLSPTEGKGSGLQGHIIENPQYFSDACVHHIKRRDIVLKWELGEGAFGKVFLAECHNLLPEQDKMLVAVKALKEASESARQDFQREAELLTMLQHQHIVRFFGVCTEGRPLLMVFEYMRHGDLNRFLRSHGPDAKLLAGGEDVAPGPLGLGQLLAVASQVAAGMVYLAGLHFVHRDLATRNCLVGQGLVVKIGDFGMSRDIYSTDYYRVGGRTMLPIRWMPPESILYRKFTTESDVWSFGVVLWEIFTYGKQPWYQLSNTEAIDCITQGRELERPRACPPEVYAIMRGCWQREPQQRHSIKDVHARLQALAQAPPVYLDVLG

[19] = target: NTRK2 (TrkB) (Homo sapiens, UniProt Q16620); assay: Radiometric kinase assay; type: biochemical; conditions: read-out: Kinase inhibition (%) NTRK2 (TrkB)
[20] = target: NTRK3 (TrkC) (Homo sapiens, UniProt Q16288); assay: Radiometric kinase assay; type: biochemical; conditions: read-out: Kinase inhibition (%) NTRK3 (TrkC)
NTRK3 (TrkC), sequence (Q16288 32-839): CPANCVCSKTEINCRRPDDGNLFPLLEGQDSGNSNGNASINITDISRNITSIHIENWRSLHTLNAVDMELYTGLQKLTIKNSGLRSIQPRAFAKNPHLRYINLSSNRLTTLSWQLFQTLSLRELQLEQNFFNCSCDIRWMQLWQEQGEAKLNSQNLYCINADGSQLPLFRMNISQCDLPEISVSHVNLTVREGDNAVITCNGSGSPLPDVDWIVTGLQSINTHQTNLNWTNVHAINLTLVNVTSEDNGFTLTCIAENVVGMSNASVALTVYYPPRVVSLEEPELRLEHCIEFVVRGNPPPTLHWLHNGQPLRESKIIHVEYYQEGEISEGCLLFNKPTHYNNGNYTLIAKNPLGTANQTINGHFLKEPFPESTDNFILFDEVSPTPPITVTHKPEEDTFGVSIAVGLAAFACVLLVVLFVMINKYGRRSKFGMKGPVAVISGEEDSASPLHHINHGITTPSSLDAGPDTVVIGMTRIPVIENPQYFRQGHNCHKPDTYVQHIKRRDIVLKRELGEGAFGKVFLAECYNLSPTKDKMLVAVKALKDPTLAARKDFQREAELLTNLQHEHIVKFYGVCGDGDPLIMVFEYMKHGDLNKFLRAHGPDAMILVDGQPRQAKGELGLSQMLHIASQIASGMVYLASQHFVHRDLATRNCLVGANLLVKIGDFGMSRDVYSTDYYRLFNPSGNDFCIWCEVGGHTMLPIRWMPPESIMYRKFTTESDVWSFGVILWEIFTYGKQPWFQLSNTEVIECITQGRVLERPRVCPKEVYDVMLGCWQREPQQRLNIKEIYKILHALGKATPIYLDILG

[21] = target: PDGFRA (PDGFRα) (Homo sapiens, UniProt P16234); assay: Radiometric kinase assay; type: biochemical; conditions: read-out: Kinase inhibition (%) PDGFRA (PDGFRα)
[22] = target: PDGFRB (PDGFRβ) (Homo sapiens, UniProt P09619); assay: Radiometric kinase assay; type: biochemical; conditions: read-out: Kinase inhibition (%) PDGFRB (PDGFRβ)
[23] = target: ROS1 (Homo sapiens, UniProt P08922); assay: Radiometric kinase assay; type: biochemical; conditions: read-out: Kinase inhibition (%) ROS1
[24] = target: WEE1 (Homo sapiens, UniProt P30291); assay: Radiometric kinase assay; type: biochemical; conditions: read-out: Kinase inhibition (%) WEE1
[25] = system: AsPC-1 cells; assay: Cell cycle test, RNase/PI flow cytometry; type: cell-based, human; conditions: AsPC-1, 3, 10, 30, 50 µM, 48 h

IC50 [2]: 1100 ± 200 nM
IC50 [3]: 600 ± 200 nM
inhibition at 10 µM [5]: 15%
inhibition at 10 µM [6]: 5%
inhibition at 10 µM [7]: 5%
inhibition at 10 µM [8]: 9%
inhibition at 10 µM [9]: 3%
inhibition at 10 µM [10]: -12%
inhibition at 10 µM [11]: -3%
inhibition at 10 µM [12]: 2%
inhibition at 10 µM [13]: -5%
inhibition at 10 µM [14]: 30%
inhibition at 10 µM [15]: -9%
inhibition at 10 µM [16]: -8%
inhibition at 10 µM [17]: 6%
inhibition at 10 µM [18]: 2%
inhibition at 10 µM [19]: 6%
inhibition at 10 µM [20]: 12%
inhibition at 10 µM [21]: 43%
inhibition at 10 µM [22]: 14%
inhibition at 10 µM [23]: -2%
inhibition at 10 µM [24]: -4%
Structure (SMILES): O=C1C=C(Nc2ccc(OCc3cn(Cc4ccc(Cl)c(Cl)c4)nn3)cc2)C(=O)c2ccccc21 [Compound 4e, 2-((4-((1-(3,4-Dichlorobenzyl)−1H-1,2,3-triazol-4-yl)methoxy)phenyl)amino) naphthalene-1,4-dione]
IC50 [1]: 300 ± 100 nM
IC50 [4]: 6500 ± 1200 nM
Effect on cell cycle distribution (S and G2/M phases) [25]: dose-dependently increased the number of cells in the S phase and simultaneously reduced the cells in G2/M phase
Effect on sub-G1 and G0/G1 phases [25]: increase in cells in sub-G1 phase, while reducing G0/G1 cells
